Laboratory results: ChEMBL document CHEMBL5247625, “Discovery and characterization of novel potent BCR-ABL degraders by conjugating allosteric inhibitor” (Eur J Med Chem, 2022)
Calls of active or inactive are those of the source.

How the values were obtained:
[1] = Apparent permeability in human Caco-2 cells incubated for 120 mins by LC-MS/MS analysis; assay type: ADME, cell-based; settings: caco-2, 2 h
U-937 = test: Antiproliferative activity against human U-937 cells assessed as inhibition of cell growth incubated for 2 days by CCK8 assay; assay type: functional, cell-based; settings: time 2.0 day
[2] = molecular target: T1, Protein cereblon/Tyrosine-protein kinase ABL1/Breakpoint cluster region protein (Homo sapiens, UniProt P00519+P11274+Q96SW2); test: Protac activity at CRBN/BCR-ABL in human K562 cells assessed as increase in BCR-ABL degradation incubated for 16 hrs by Western blotting analysis; assay type: cell-based
Target sequence in this assay (P00519 whole entry): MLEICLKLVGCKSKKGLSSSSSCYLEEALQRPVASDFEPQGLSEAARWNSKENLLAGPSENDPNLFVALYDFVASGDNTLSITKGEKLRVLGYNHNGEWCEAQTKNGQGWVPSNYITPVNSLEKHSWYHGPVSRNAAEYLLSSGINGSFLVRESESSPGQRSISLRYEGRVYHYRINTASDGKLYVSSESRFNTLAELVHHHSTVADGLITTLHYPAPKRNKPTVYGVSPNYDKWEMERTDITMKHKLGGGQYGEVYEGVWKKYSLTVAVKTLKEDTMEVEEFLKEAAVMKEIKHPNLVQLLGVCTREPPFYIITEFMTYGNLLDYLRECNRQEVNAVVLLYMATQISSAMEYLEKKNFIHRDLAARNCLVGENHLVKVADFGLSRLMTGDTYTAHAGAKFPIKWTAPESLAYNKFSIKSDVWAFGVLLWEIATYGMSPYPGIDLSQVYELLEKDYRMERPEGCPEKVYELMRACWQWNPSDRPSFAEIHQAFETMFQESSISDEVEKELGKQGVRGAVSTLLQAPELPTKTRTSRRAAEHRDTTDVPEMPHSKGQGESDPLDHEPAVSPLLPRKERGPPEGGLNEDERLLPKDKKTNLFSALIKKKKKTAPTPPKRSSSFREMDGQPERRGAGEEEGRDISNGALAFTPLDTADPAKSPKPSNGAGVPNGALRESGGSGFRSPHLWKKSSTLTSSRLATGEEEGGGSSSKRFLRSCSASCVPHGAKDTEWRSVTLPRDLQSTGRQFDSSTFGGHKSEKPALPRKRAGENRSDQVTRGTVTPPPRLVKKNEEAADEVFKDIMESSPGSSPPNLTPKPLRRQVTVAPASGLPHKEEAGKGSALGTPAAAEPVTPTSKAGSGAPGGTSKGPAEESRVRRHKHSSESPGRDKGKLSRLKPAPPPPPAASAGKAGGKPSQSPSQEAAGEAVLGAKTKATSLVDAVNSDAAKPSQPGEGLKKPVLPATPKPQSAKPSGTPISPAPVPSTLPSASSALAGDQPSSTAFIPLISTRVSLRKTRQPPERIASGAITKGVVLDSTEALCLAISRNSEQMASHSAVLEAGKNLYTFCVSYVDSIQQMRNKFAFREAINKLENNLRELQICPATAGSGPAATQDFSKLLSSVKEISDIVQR
Target sequence in this assay (P11274 whole entry): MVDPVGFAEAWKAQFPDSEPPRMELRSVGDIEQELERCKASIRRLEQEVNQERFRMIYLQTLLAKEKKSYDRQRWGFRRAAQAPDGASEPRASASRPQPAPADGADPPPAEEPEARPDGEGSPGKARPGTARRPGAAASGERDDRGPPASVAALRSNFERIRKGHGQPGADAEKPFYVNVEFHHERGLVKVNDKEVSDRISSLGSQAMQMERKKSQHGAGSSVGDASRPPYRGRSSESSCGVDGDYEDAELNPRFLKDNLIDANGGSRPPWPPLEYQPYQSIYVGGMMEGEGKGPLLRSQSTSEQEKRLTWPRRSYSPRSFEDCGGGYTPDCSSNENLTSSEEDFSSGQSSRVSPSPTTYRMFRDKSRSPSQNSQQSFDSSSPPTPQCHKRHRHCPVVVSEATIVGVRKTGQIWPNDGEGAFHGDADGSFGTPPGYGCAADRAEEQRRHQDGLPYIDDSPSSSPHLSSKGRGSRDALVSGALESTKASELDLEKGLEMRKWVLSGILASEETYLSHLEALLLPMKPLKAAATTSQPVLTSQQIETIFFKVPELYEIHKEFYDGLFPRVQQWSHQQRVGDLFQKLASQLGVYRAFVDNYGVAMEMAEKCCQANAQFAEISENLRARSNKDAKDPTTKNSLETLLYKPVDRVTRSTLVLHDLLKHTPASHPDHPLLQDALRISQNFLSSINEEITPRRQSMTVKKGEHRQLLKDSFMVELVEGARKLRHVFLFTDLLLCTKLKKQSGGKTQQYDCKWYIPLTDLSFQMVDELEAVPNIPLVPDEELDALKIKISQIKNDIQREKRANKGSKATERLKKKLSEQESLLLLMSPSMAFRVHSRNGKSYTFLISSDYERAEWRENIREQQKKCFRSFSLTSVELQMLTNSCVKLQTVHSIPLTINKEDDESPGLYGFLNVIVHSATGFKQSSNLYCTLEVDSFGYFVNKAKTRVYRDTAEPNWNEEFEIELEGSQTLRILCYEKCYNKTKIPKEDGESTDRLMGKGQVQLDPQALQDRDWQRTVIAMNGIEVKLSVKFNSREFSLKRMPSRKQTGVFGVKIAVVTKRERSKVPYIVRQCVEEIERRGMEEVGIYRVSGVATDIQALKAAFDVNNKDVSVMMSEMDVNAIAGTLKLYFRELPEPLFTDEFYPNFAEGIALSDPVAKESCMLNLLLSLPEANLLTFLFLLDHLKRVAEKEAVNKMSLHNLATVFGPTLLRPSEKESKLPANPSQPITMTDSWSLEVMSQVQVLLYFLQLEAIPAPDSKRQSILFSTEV
Target sequence in this assay (Q96SW2 whole entry): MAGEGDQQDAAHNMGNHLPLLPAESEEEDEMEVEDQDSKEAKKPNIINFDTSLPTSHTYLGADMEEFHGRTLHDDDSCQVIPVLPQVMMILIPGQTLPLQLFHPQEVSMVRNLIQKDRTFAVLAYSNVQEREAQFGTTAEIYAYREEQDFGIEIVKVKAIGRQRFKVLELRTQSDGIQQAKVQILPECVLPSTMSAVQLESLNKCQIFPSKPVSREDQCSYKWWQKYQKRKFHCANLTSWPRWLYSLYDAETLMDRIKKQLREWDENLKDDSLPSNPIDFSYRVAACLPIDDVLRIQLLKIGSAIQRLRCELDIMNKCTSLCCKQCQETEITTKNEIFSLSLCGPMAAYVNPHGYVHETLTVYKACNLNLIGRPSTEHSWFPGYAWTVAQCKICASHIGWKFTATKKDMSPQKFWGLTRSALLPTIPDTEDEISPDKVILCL

[3] = molecular target: T2, Signal transducer and activator of transcription 5A (Homo sapiens) (UniProt P42229); test: Inhibition of STAT5 phosphorylation at Tyr694 residue in human K562 cells at 0.3 to 100 nM incubated for 16 hrs by Western blotting analysis; assay type: cell-based; settings: dose 0.3-100 nM
T2 sequence (whole entry): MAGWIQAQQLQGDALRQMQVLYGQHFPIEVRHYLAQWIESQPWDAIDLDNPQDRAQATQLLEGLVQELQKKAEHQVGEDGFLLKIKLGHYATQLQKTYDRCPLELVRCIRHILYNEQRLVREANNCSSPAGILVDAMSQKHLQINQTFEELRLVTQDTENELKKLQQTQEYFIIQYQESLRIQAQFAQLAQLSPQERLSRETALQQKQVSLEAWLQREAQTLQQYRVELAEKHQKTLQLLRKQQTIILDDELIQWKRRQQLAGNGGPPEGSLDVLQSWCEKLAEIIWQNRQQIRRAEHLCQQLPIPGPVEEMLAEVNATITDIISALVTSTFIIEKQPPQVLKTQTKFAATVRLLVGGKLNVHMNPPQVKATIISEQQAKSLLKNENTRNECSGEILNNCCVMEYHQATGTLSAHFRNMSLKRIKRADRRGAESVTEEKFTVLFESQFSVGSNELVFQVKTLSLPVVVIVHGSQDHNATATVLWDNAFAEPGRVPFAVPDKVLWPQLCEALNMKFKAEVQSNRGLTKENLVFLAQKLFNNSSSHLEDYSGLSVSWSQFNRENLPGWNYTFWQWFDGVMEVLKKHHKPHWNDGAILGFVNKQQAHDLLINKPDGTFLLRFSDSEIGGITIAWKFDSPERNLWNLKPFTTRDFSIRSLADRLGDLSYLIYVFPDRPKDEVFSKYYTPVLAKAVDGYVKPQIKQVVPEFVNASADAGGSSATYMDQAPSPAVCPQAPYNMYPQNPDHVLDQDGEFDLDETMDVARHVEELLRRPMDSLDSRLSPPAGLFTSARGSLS

[4] = molecular target: Crk-like protein (Homo sapiens) (UniProt P46109); test: Inhibition of CRKL phosphorylation at Tyr207 residue in human K562 cells at 0.3 to 100 nM incubated for 16 hrs by Western blotting analysis; assay type: cell-based; settings: dose 0.3-100 nM
Chain of Crk-like protein (Homo sapiens) (P46109 whole entry): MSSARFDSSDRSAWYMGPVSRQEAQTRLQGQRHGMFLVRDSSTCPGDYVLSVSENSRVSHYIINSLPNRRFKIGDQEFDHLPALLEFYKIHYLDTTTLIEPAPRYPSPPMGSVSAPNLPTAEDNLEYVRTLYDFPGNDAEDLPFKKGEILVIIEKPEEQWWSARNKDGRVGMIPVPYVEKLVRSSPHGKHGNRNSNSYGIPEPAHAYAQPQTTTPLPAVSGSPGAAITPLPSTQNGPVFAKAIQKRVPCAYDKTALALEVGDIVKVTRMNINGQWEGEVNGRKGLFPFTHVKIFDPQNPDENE

[5] = molecular target: T1, Protein cereblon/Tyrosine-protein kinase ABL1/Breakpoint cluster region protein; test: Protac activity at CRBN/BCR-ABL in human K562 cells assessed as induction of BCR-ABL degradation at 100 nM by Western blotting analysis; assay type: cell-based; settings: time 4.0 hrs, TDE = time-dependent effect
Target sequence in this assay (P00519 whole entry, looked up): as the sequence (P00519 whole entry) above
Target sequence in this assay (P11274 whole entry, looked up): as the sequence (P11274 whole entry) above
Target sequence in this assay (Q96SW2 whole entry, looked up): as the sequence (Q96SW2 whole entry) above

[6] = molecular target: T1, Protein cereblon/Tyrosine-protein kinase ABL1/Breakpoint cluster region protein; test: Protac activity at CRBN/BCR-ABL in human K562 cells assessed as BCR-ABL turnover rate in presence of cycloheximide by Western blotting analysis; assay type: cell-based
Target sequence in this assay (P00519 whole entry, looked up): as the sequence (P00519 whole entry) above
Target sequence in this assay (P11274 whole entry, looked up): as the sequence (P11274 whole entry) above
Target sequence in this assay (Q96SW2 whole entry, looked up): as the sequence (Q96SW2 whole entry) above

[7] = molecular target: T1, Protein cereblon/Tyrosine-protein kinase ABL1/Breakpoint cluster region protein; test: Protac activity at CRBN/BCR-ABL in human K562 cells assessed as c-ABL turnover rate in presence of cycloheximide by Western blotting analysis; assay type: cell-based
Target sequence in this assay (P00519 whole entry, looked up): as the sequence (P00519 whole entry) above
Target sequence in this assay (P11274 whole entry, looked up): as the sequence (P11274 whole entry) above
Target sequence in this assay (Q96SW2 whole entry, looked up): as the sequence (Q96SW2 whole entry) above

[8] = molecular target: T1, Protein cereblon/Tyrosine-protein kinase ABL1/Breakpoint cluster region protein; test: Protac activity at CRBN/BCR-ABL in human K562 cells assessed as induction of BCR-ABL degradation at 100 nM pretreated with MLN4924 for 2 hrs followed by compound addition measured after 8 hrs by Western blotting analysis; assay type: cell-based; settings: time 10.0 hrs
Target sequence in this assay (P00519 whole entry, looked up): as the sequence (P00519 whole entry) above
Target sequence in this assay (P11274 whole entry, looked up): as the sequence (P11274 whole entry) above
Target sequence in this assay (Q96SW2 whole entry, looked up): as the sequence (Q96SW2 whole entry) above

[9] = molecular target: T1, Protein cereblon/Tyrosine-protein kinase ABL1/Breakpoint cluster region protein; test: Protac activity at CRBN/BCR-ABL in human K562 cells assessed as induction of c-ABL degradation at 100 nM pretreated with lenalidomide for 2 hrs followed by compound addition measured after 8 hrs by Western blotting analysis; assay type: cell-based; settings: time 10.0 hrs
Target sequence in this assay (P00519 whole entry, looked up): as the sequence (P00519 whole entry) above
Target sequence in this assay (P11274 whole entry, looked up): as the sequence (P11274 whole entry) above
Target sequence in this assay (Q96SW2 whole entry, looked up): as the sequence (Q96SW2 whole entry) above

[10] = molecular target: T1, Protein cereblon/Tyrosine-protein kinase ABL1/Breakpoint cluster region protein; test: Protac activity at CRBN/BCR-ABL in human K562 cells assessed as induction of c-ABL degradation at 100 nM pretreated with asciminib for 2 hrs followed by compound addition measured after 8 hrs by Western blotting analysis; assay type: cell-based; settings: time 10.0 hrs
Target sequence in this assay (P00519 whole entry, looked up): as the sequence (P00519 whole entry) above
Target sequence in this assay (P11274 whole entry, looked up): as the sequence (P11274 whole entry) above
Target sequence in this assay (Q96SW2 whole entry, looked up): as the sequence (Q96SW2 whole entry) above

[11] = molecular target: T1, Protein cereblon/Tyrosine-protein kinase ABL1/Breakpoint cluster region protein; test: Protac activity at CRBN/BCR-ABL in human K562 cells assessed as induction of c-ABL degradation at 100 nM pretreated with MLN4924 for 2 hrs followed by compound addition measured after 8 hrs by Western blotting analysis; assay type: cell-based; settings: time 10.0 hrs
[12] = molecular target: T3, Bcr/Abl fusion protein (Homo sapiens) (UniProt P00519+P11274); test: Inhibition of BCR-ABL phosphorylation at Tyr245 residue in human K562 cells at 100 nM by Western blotting analysis; assay type: cell-based; settings: time <= 18.0 hrs, TDE = time-dependent effect
T3 sequence (P00519 whole entry, looked up, the tested form may be a part): as the sequence (P00519 whole entry) above
T3 sequence (P11274 whole entry, looked up, the tested form may be a part): as the sequence (P11274 whole entry) above

[13] = molecular target: T2, Signal transducer and activator of transcription 5A (Homo sapiens); test: Inhibition of STAT5 phosphorylation at Tyr694 residue in human K562 cells at 100 nM by Western blotting analysis; assay type: cell-based; settings: time <= 18.0 hrs, TDE = time-dependent effect
[14] = molecular target: Crk-like protein (Homo sapiens) (UniProt P46109); test: Inhibition of CRKL phosphorylation at Tyr207 residue in human K562 cells at 100 nM by Western blotting analysis; assay type: cell-based; settings: time <= 18.0 hrs, TDE = time-dependent effect
[15] = molecular target: T1, Protein cereblon/Tyrosine-protein kinase ABL1/Breakpoint cluster region protein; test: Protac activity at CRBN/BCR-ABL in human K562 cells assessed as increase in BCR-ABL degradation at 100 nM incubated for 6 hrs by Western blotting analysis; assay type: cell-based
[16] = molecular target: T3, Bcr/Abl fusion protein (Homo sapiens); test: Inhibition of BCR-ABL phosphorylation at Tyr245 residue in human K562 cells at 100 nM incubated for 6 hrs followed by compound washout measured upto 96 hrs by Western blotting analysis; assay type: cell-based
[17] = tested on: Protein cereblon/Tyrosine-protein kinase ABL1/Breakpoint cluster region protein (Mus musculus), P00520+Q6PAJ1+Q8C7D2 [E255V]; test: Protac activity at CRBN/BCR-ABL E255V mutant in mouse 32D cells assessed as increase in BCR-ABL degradation at 1 to 1000 nM by Western blotting analysis; assay type: cell-based; settings: dose 1-1000 nM
[18] = tested on: Protein cereblon/Tyrosine-protein kinase ABL1/Breakpoint cluster region protein (Mus musculus), P00519+P11274+Q8C7D2 [K294E]; test: Protac activity at CRBN/asciminib resistance BCR-ABL K294E mutant in mouse 32D cells assessed as increase in BCR-ABL degradation at 1 to 1000 nM by Western blotting analysis; assay type: cell-based; settings: dose 1-1000 nM
[19] = tested on: Protein cereblon/Tyrosine-protein kinase ABL1/Breakpoint cluster region protein (Mus musculus), P00519+P11274+Q8C7D2 [G671R]; test: Protac activity at CRBN/asciminib resistance BCR-ABL G671R mutant in mouse 32D cells assessed as increase in BCR-ABL degradation at 1 to 1000 nM by Western blotting analysis; assay type: cell-based; settings: dose 1-1000 nM
[20] = tested on: Protein cereblon/Tyrosine-protein kinase ABL1/Breakpoint cluster region protein (Mus musculus), P00519+P11274+Q8C7D2 [Y253H/E255V]; test: Protac activity at CRBN/BCR-ABL Y253H/E255V double mutant in mouse 32D cells assessed as increase in p-BCR-ABL degradation at 1 to 1000 nM by Western blotting analysis; assay type: cell-based; settings: dose 1-1000 nM
K562 = test: cells; settings: Homo sapiens, K562, 48 h
Description: Antiproliferative activity against human K562 cells assessed as inhibition of cell growth incubated for 2 days by CCK8 assay

O=C1CCC(N2Cc3c(SCCCCCCN4CCN(C5CCN(c6ncc(C(=O)Nc7ccc(OC(F)(F)Cl)cc7)cc6-c6ccn[nH]6)CC5)CC4)cccc3C2=O)C(=O)N1 (configuration not stated)
active: inhibition [3] | inhibition [4] | Activity [5] Tde | Activity [6] | Activity [7] | inhibition [12] Tde | inhibition [13] Tde | inhibition [14] Tde | Activity [15] | Activity [17] | Activity [18] | Activity [19] | Activity [20]
2.7 nM: DC50 [2]
inactive: Activity (U-937) | Activity [8] | Activity [9] | Activity [10] | Activity [11] | inhibition [16]
12 nM: IC50 (K562)
Impermeable: Papp [1]
